Results published in US20150225404A1, “PYRIDINE DERIVATIVE AND MEDICINE” (NIPPON SHINYAKU CO., LTD., priority 2012, published 2015).
pIC50: −log10 of the molar value. Structures can show the parent of a compound that is named as a salt. Where two headings read alike, the source gives them in different places.

Key:
male Slc:ICR mice [1] = test: Action against formalin-induced pain behavior in mice; assay type: in vivo; conditions: Mus musculus, iv, 0.1 h, test substance 1 mg/kg intravenously, 6 minutes observation, read-out: Percent inhibition of pain-related behavior time (%)
Description: 4 to 6-week-old male Slc:ICR mice (available from Japan SLC, Inc.) were used. A medium or a test substance (1 mg/kg or 3 mg/kg) was intravenously administered to each mouse, and immediately thereafter, 20 μL of 1% or 5% formalin was subcutaneously administered to a right hind paw of the mouse. Thereafter, the mice were quickly put into an observation cage and measured for the total time (sec) of pain-related behavior (licking or biting behavior against the right hindlimb) during 6 minutes, and an average value of the pain-related behavior time of each group was calculated.
The intensity of an analgesic action of the test substance was evaluated in terms of percent inhibition (%) of pain-related behavior time which is calculated as {(A−B)/A×100}, wherein A is an average value of the pain-related behavior time of a medium-administered group, and B is an average value of the pain-related behavior time of a test substance-administered group.

male Slc:ICR mice [2] = test: Action against pain-related behavior and micturition cycle in mice with cyclophosphamide (CP)-induced acute cystitis; assay type: in vivo; conditions: Mus musculus, iv, 0.25 h, CP 300 mg/kg i.p., 15 minutes observation; for inhibition in vivo at 1 mg/kg: test substance 1 mg/kg intravenously 3 hours after CP; for inhibition in vivo at 3 mg/kg: test substance 3 mg/kg intravenously 3 hours after CP
Description: An action of a test substance against visceral pain and frequent urination associated with cystitis, which was induced by intraperitoneal administration (20 mL/kg) of CP (300 mg/kg) to 4 to 5-week-old male Slc:ICR mice (available from Japan SLC, Inc.), was investigated. This experiment was performed according to a method described in European Journal of Pharmacology, 676 (2012), pp. 75-80.
Three hours after the administration of CP, a test substance (1 mg/kg or 3 mg/kg) was intravenously administered, and observation by visual inspection and video recording were performed for 15 minutes immediately thereafter. In the observation by visual inspection, four pain-related behaviors (eye opening, rounded back, leg dragging, and behavior during urination) were scored, each rated on a scale of 0-10, according to the following criteria.
Eye opening (normal: 0 point, sometimes closed or half-open eyes: 5 points, completely closed: 10 points)
Rounded back (normal: 0 point, sometimes crouched: 5 points, crouched at almost all times: 10 points)
Leg dragging (normal: 0 point, leg dragging: 10 points)
Behavior during urination (normal: 0 point, shaking hip in micturition: 10 points)
In addition, the video was played back, and the frequency of licking behavior around the abdomen as a pain-related behavior was scored, rated on a scale of 0-10, according to the following criteria.
Licking behavior around the abdomen (0 to 3 times: 0 point, 4 times to 10 times: 5 points, 11 times or more: 10 points)
Furthermore, the video was played back, and the frequency of urination (urination marks) on a filter paper was counted and taken as an index for micturition cycle.
An average value of the pain-related behavior score of each group (total score of the five items: 50 points at maximum) and an average value of the frequency of urination (urination marks) on the filter paper were determined.
The strength of an analgesic action of the test substance against the CP-induced visceral pain was evaluated in terms of percent inhibition (%) of pain-related behavior score which is calculated as {(A−B)/A×100}, wherein A is an average value of the pain-related behavior score of a medium-administered group, and B is an average value of the pain-related behavior score of a test substance-administered group.
In addition, the strength of a frequent urination inhibitory action of the test substance against the CP-induced frequent urination was evaluated in terms of percent inhibition (%) of the frequency of urination which is calculated as {(C−D)/C×100}, wherein C is an average value of the frequency of urination of a medium-administered group, and D is an average value of the frequency of urination of a test substance-administered group.

human mGluR5 = target: T1, human mGluR5 (Homo sapiens, UniProt P41594); test: Experiment for receptor function of mGluR5 (Ca2+-dependent fluorescence, FLIPR, CHO-K1 cells stably expressing human mGluR5); assay type: cell-based; conditions: L-glutamic acid 10 μM, Fluo-4 fluorescence
T1 construct: expressed in transfected cells
T1 sequence (P41594 21-1212): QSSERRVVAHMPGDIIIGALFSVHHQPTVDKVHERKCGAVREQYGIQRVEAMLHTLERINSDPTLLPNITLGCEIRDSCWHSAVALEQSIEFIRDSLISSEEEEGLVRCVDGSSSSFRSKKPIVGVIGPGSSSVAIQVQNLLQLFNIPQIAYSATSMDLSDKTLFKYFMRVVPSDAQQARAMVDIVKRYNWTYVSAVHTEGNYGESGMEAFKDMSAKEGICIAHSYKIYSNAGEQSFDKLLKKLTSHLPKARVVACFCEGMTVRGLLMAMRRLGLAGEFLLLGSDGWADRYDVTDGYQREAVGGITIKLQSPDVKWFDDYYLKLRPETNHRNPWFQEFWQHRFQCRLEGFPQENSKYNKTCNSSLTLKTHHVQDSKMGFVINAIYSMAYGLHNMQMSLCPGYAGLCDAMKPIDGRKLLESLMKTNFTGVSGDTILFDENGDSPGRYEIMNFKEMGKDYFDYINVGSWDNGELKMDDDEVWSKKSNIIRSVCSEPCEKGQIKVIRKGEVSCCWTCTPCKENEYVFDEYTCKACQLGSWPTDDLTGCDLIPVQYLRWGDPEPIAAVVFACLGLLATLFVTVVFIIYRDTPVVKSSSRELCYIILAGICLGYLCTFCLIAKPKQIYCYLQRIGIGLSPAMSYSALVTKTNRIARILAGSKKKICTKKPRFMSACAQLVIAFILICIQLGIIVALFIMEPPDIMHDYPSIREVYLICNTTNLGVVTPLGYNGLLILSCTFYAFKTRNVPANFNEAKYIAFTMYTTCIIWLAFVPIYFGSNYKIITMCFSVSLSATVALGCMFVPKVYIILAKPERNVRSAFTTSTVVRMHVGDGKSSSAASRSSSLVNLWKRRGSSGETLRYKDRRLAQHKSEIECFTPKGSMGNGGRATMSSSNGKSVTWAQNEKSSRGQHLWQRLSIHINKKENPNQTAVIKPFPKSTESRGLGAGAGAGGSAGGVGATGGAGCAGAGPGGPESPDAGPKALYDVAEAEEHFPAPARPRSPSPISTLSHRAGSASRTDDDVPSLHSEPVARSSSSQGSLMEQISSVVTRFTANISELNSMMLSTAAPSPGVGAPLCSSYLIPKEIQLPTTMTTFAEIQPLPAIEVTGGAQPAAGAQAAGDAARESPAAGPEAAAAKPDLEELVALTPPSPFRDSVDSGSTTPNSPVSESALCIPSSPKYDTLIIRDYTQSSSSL
In short: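 Fluo-4-loaded CHO-K1 cells pre-incubated 2 min with test substance, then stimulated with L-glutamic acid (final 10 μM) in HBSS, pH 7.4. FLIPR Ca2+ fluorescence normalized to glutamate alone (100%) and glutamate with 10 μM MPEP (0%); IC50 estimated by logistic fit.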

[3] = read-out: Percent inhibition of pain-related behavior score (%)
[4] = read-out: Percent inhibition of the frequency of urination (%)

| Structure (SMILES) | inhibition in vivo at 1 mg/kg (male Slc:ICR mice [1]; 5% formalin) [%] | inhibition in vivo at 1 mg/kg (male Slc:ICR mice [2]; [3]) [%] | inhibition in vivo at 1 mg/kg (male Slc:ICR mice [2]; [4]) [%] | pIC50 (human mGluR5) | inhibition in vivo at 1 mg/kg (male Slc:ICR mice [1]; 1% formalin) [%] | inhibition in vivo at 3 mg/kg (male Slc:ICR mice [2]; [3]) [%] | inhibition in vivo at 3 mg/kg (male Slc:ICR mice [2]; [4]) [%] |
| --- | --- | --- | --- | --- | --- | --- | --- |
| N#Cc1ccc(-c2cc(OCc3ccc(F)cn3)nc3c2CCC3)cn1 [Example 9, 5-{2-[(5-Fluoropyridin-2-yl)methoxy]-6,7-dihydro-5H-cyclopenta[b]pyridin-4-yl}pyridine-2-carbonitrile] | 39.1 | 23.9 | 36.3 |  |  |  |  |
| Fc1cccnc1COc1cc(-c2cncnc2)c2c(n1)CCC2 [Example 26, 2-[(3-Fluoropyridin-2-yl)methoxy]-4-(pyrimidin-5-yl)-6,7-dihydro-5H-cyclopenta[b]pyridine] |  |  |  | 7.13 | 71.9 | 60.5 | 57.3 |
| c1ncc(-c2cc(OCc3nccs3)nc3c2CCCC3)cn1 [Example 164, 4-(Pyrimidin-5-yl)-2-(1,3-thiazol-2-ylmethoxy)-5,6,7,8-tetrahydroquinoline] |  |  |  | 7.55 | 42.2 |  |  |
| c1ncc(-c2cc(OCc3ncco3)nc3c2CCCC3)cn1 [Example 165, 2-(1,3-Oxazol-2-ylmethoxy)-4-(pyrimidin-5-yl)-5,6,7,8-tetrahydroquinoline] |  |  |  | 7.42 | 52.3 |  |  |
| N#Cc1ncc(-c2cc(OCc3ccccn3)nc3c2CCCC3)cn1 [Example 173, 5-[2-(Pyridin-2-ylmethoxy)-5,6,7,8-tetrahydroquinolin-4-yl]pyrimidine-2-carbonitrile hydrochloride] | 65.4 |  |  | 6.79 |  | 63.3 | 52.6 |
| Cc1ncc(-c2cc(OCc3ncccc3F)nc3c2CCCC3)cn1 [Example 187, 2-[(3-Fluoropyridin-2-yl)methoxy]-4-(2-methylpyrimidin-5-yl)-5,6,7,8-tetrahydroquinoline] | 59.4 | 22.9 | 51.6 | 7.44 |  |  |  |
| N#Cc1nccnc1-c1cc(OCc2ccccn2)nc2c1CCCC2 [Example 198, 3-[2-(Pyridin-2-ylmethoxy)-5,6,7,8-tetrahydroquinolin-4-yl]pyrazine-2-carbonitrile hydrochloride] |  |  |  | 7.25 | 24.7 | 40.4 | 37.6 |
| Cc1cncc(-c2cc(OCc3ncccc3F)nc3c2CCCC3)n1 [Example 214, 2-[(3-Fluoropyridin-2-yl)methoxy]-4-(6-methylpyrazin-2-yl)-5,6,7,8-tetrahydroquinoline] | 55.3 |  |  | 6.88 |  | 44.2 | 25.3 |
| OCc1cncc(-c2cc(OCc3ccc(F)cn3)nc3c2CCCC3)n1 [Example 216, (6-{2-[(5-Fluoropyridin-2-yl)methoxy]-5,6,7,8-tetrahydroquinolin-4-yl}pyrazin-2-yl)methanol] | 41.2 |  |  |  |  | 28.2 | 30.1 |
| OCc1ncc(-c2cc(OCc3ccccn3)nc3c2CCCC3)s1 [Example 226, {5-[2-(Pyridin-2-ylmethoxy)-5,6,7,8-tetrahydroquinolin-4-yl]-1,3-thiazol-2-yl}methanol hydrochloride] |  |  |  | 7.28 | 26.8 |  |  |
| COCc1ncc(-c2cc(OCc3ccccn3)nc3c2CCCC3)s1 [Example 227, 4-[2-(Methoxymethyl)-1,3-thiazol-5-yl]-2-(pyridin-2-ylmethoxy)-5,6,7,8-tetrahydroquinoline] |  |  |  | 7.44 | 25.6 |  |  |
| [O-][n+]1cncc(-c2cc(OCc3ccccn3)nc3c2CCCC3)c1 [Example 231, 4-(1-Oxidopyrimidin-5-yl)-2-(pyridin-2-ylmethoxy)-5,6,7,8-tetrahydroquinoline] | 66.1 |  |  | 6.52 |  |  |  |
| c1ccc(COc2cc(-c3cncnc3)c3c(n2)CCCCC3)nc1 [Example 233, 2-(Pyridin-2-ylmethoxy)-4-(pyrimidin-5-yl)-6,7,8,9-tetrahydro-5H-cyclohepta[b]pyridine hydrochloride] |  |  |  | 7.96 | 59.5 |  |  |
| CC1CCc2c(-c3cncnc3)cc(OCc3ccccn3)nc21 (stereo not drawn) [Example 238, 7-Methyl-2-(pyridin-2-ylmethoxy)-4-(pyrimidin-5-yl)-6,7-dihydro-5H-cyclopenta[b]pyridine] | 77.9 |  |  | 7.64 |  |  |  |
| N#Cc1ccc(-c2cc(OCc3ncc(F)cc3F)nc3c2CCC3)cn1 [Example 246, 5-{2-[(3,5-Difluoropyridin-2-yl)methoxy]-6,7-dihydro-5H-cyclopenta[b]pyridin-4-yl}pyridine-2-carbonitrile] | 22.8 |  |  | 7.38 |  |  |  |
| Fc1ccc(COc2cc(-c3cncnc3)c3c(n2)CCC3)cc1 [Example 257, 2-[(4-Fluorobenzyl)oxy]-4-(pyrimidin-5-yl)-6,7-dihydro-5H-cyclopenta[b]pyridine] | 51.1 |  |  | 7.20 |  |  |  |
| Cc1ncc(-c2cc(OCc3ccc(F)cc3)nc3c2CCC3)cn1 [Example 260, 2-[(4-Fluorobenzyl)oxy]-4-(2-methylpyrimidin-5-yl)-6,7-dihydro-5H-cyclopenta[b]pyridine] | 42.9 |  |  | 7.10 |  |  |  |
| Fc1cccnc1COc1cc(-c2cccnn2)c2c(n1)CCC2 [Example 272, 2-[(3-Fluoropyridin-2-yl)methoxy]-4-(pyridazin-3-yl)-6,7-dihydro-5H-cyclopenta[b]pyridine] | 40.5 |  |  | 6.93 |  |  |  |
| Fc1cnc(COc2cc(-c3cncnc3)c3c(n2)CCCC3)c(F)c1 [Example 277, 2-[(3,5-Difluoropyridin-2-yl)methoxy]-4-(pyrimidin-5-yl)-5,6,7,8-tetrahydroquinoline] | 60.9 |  |  |  |  | 40.4 | 24.8 |
